Test results from PubChem BioAssay AID2060902 (Molecular Pharmacology Branch, DTP, NCI, 2025).

Tested on: 485368-065-R3-J5-PDC spheroids with HUVEC/MSC, viability
Experiment: Anticancer human tumor 485368-065-R3-J5-PDC patient-derived pancreatic carcinoma cell line growth inhibition [RAS]
Conditions: for IC50: curve of first compound; for viability, T/C: stronger effect = lower value
How it was run: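 Agents were tested in combination matrices in half-log decrements from a top concentration at or near clinical Cmax (10 microM if undetermined). Targets were multi-cell spheroids of tumour lines plus HUVEC and MSC stromal cells.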

[1] = second compound 0.000949 µM, first compound 0.0316 µM
[2] = second compound 0.000949 µM, first compound 0.1 µM
[3] = second compound 0.000949 µM, first compound 0.316 µM
[4] = second compound 0.000949 µM, first compound 1 µM
[5] = second compound 0.003 µM, first compound 0.0316 µM
[6] = second compound 0.003 µM, first compound 0.1 µM
[7] = second compound 0.003 µM, first compound 0.316 µM
[8] = second compound 0.003 µM, first compound 1 µM
[9] = second compound 0.00949 µM, first compound 0.0316 µM
[10] = second compound 0.00949 µM, first compound 0.1 µM
[11] = second compound 0.00949 µM, first compound 0.316 µM
[12] = second compound 0.00949 µM, first compound 1 µM
[13] = second compound 0.03 µM, first compound 0.0316 µM
[14] = second compound 0.03 µM, first compound 0.1 µM
[15] = second compound 0.03 µM, first compound 0.316 µM
[16] = second compound 0.03 µM, first compound 1 µM
[17] = second compound 0.0949 µM, first compound 0.0316 µM
[18] = second compound 0.0949 µM, first compound 0.1 µM
[19] = second compound 0.0949 µM, first compound 0.316 µM
[20] = second compound 0.0949 µM, first compound 1 µM
[21] = second compound 0.3 µM, first compound 0.0316 µM
[22] = second compound 0.3 µM, first compound 0.1 µM
[23] = second compound 0.3 µM, first compound 0.316 µM
[24] = second compound 0.3 µM, first compound 1 µM
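Further: spheroids exposed to agents for seven days before readout.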

## NC1c2ccccc2OC12CCN(c1cnc3c(N4CCCc5ncccc54)n[nH]c3n1)CC2 (centres undefined) + CCn1c(-c2cc(N3CCN(C)CC3)cnc2C(C)OC)c2c3cc(ccc31)-c1csc(n1)CC(NC(=O)C1CC1C)C(=O)N1CCCC(N1)C(=O)OCC(C)(C)C2
Second compound 0.000949 µM
  IC50: < 31.6 nM
Second compound 0.003 µM
  IC50: < 31.6 nM
Second compound 0.00949 µM
  IC50: < 31.6 nM
Second compound 0.03 µM
  IC50: < 31.6 nM
Second compound 0.0949 µM
  IC50: < 31.6 nM
Second compound 0.3 µM
  IC50: < 31.6 nM
[1]
  viability, T/C: 20.7%
[2]
  viability, T/C: 16%
[3]
  viability, T/C: 14.1%
[4]
  viability, T/C: 10.6%
Second compound 0.000949 µM, first compound 3.16 µM
  viability, T/C: 5.97%
Second compound 0.000949 µM, first compound 10 µM
  viability, T/C: 4.14%
[5]
  viability, T/C: 15.1%
[6]
  viability, T/C: 12.5%
[7]
  viability, T/C: 9.36%
[8]
  viability, T/C: 4.72%
Second compound 0.003 µM, first compound 3.16 µM
  viability, T/C: 3.77%
Second compound 0.003 µM, first compound 10 µM
  viability, T/C: 1.44%
[9]
  viability, T/C: 12.7%
[10]
  viability, T/C: 8.1%
[11]
  viability, T/C: 5.43%
[12]
  viability, T/C: 2.3%
Second compound 0.00949 µM, first compound 3.16 µM
  viability, T/C: 2.03%
Second compound 0.00949 µM, first compound 10 µM
  viability, T/C: 0.85%
[13]
  viability, T/C: 7.1%
[14]
  viability, T/C: 6.69%
[15]
  viability, T/C: 3.1%
[16]
  viability, T/C: 1.62%
Second compound 0.03 µM, first compound 3.16 µM
  viability, T/C: 0.67%
Second compound 0.03 µM, first compound 10 µM
  viability, T/C: 0.58%
[17]
  viability, T/C: 6.28%
[18]
  viability, T/C: 4.31%
[19]
  viability, T/C: 2.01%
[20]
  viability, T/C: 0.85%
Second compound 0.0949 µM, first compound 3.16 µM
  viability, T/C: 0.88%
Second compound 0.0949 µM, first compound 10 µM
  viability, T/C: 0.54%
[21]
  viability, T/C: 6.78%
[22]
  viability, T/C: 3.56%
[23]
  viability, T/C: 2.12%
[24]
  viability, T/C: 1%
Second compound 0.3 µM, first compound 3.16 µM
  viability, T/C: 0.91%
Second compound 0.3 µM, first compound 10 µM
  viability, T/C: 0.53%

## Nc1ccn(C2OC(CO)C(O)C2(F)F)c(=O)n1 (centres undefined) + CCn1c(-c2cc(N3CCN(C)CC3)cnc2C(C)OC)c2c3cc(ccc31)-c1csc(n1)CC(NC(=O)C1CC1C)C(=O)N1CCCC(N1)C(=O)OCC(C)(C)C2
Second compound 0.000949 µM
  IC50: < 3.16 nM
Second compound 0.003 µM
  IC50: < 3.16 nM
Second compound 0.00949 µM
  IC50: < 3.16 nM
Second compound 0.03 µM
  IC50: < 3.16 nM
Second compound 0.0949 µM
  IC50: < 3.16 nM
Second compound 0.3 µM
  IC50: < 3.16 nM
Second compound 0.000949 µM, first compound 0.00316 µM
  viability, T/C: 31%
Second compound 0.000949 µM, first compound 0.01 µM
  viability, T/C: 15.8%
[1]
  viability, T/C: 8.79%
[2]
  viability, T/C: 6.33%
[3]
  viability, T/C: 6.11%
[4]
  viability, T/C: 5.93%
Second compound 0.003 µM, first compound 0.00316 µM
  viability, T/C: 18.5%
Second compound 0.003 µM, first compound 0.01 µM
  viability, T/C: 12.8%
[5]
  viability, T/C: 9.81%
[6]
  viability, T/C: 6.58%
[7]
  viability, T/C: 9.3%
[8]
  viability, T/C: 6.96%
Second compound 0.00949 µM, first compound 0.00316 µM
  viability, T/C: 13.5%
Second compound 0.00949 µM, first compound 0.01 µM
  viability, T/C: 10.9%
[9]
  viability, T/C: 9.06%
[10]
  viability, T/C: 8.14%
[11]
  viability, T/C: 8.28%
[12]
  viability, T/C: 7.89%
Second compound 0.03 µM, first compound 0.00316 µM
  viability, T/C: 10.7%
Second compound 0.03 µM, first compound 0.01 µM
  viability, T/C: 11%
[13]
  viability, T/C: 7.61%
[14]
  viability, T/C: 6.76%
[15]
  viability, T/C: 7.98%
[16]
  viability, T/C: 6.7%
Second compound 0.0949 µM, first compound 0.00316 µM
  viability, T/C: 9.63%
Second compound 0.0949 µM, first compound 0.01 µM
  viability, T/C: 8.06%
[17]
  viability, T/C: 7.29%
[18]
  viability, T/C: 5.92%
[19]
  viability, T/C: 6.25%
[20]
  viability, T/C: 6.08%
Second compound 0.3 µM, first compound 0.00316 µM
  viability, T/C: 6.95%
Second compound 0.3 µM, first compound 0.01 µM
  viability, T/C: 7.22%
[21]
  viability, T/C: 7.67%
[22]
  viability, T/C: 5.52%
[23]
  viability, T/C: 7.58%
[24]
  viability, T/C: 6.63%
